In brackets after ≈: the same amount, converted by molar mass.
Key:
Assay in all cases: Bacterial growth minimal inhibitory concentration (microdilution, CLSI M7-A7)
Type in all cases: cell-based
[1] = system: Moraxella catarrhalis A894; conditions: Moraxella catarrhalis, A894; quinolone-sensitive strain; cation-adjusted Mueller-Hinton Broth
Procedure: (§1) Minimal Inhibitory Concentrations (MICs; […]) were determined in cation-adjusted Mueller-Hinton Broth by a microdilution method following the description given in “Methods for Dilution Antimicrobial Susceptibility Tests for Bacteria that Grow Aerobically”, Approved standard, 7th ed., Clinical and Laboratory Standards Institute (CLSI) Document M7-A7, Wayne, Pa., USA, 2006.

[2] = system: Staphylococcus aureus ATCC29213; conditions: Staphylococcus aureus, ATCC29213; methicillin-sensitive and quinolone-sensitive strain; cation-adjusted Mueller-Hinton Broth; read-out: MIC for S. aureus ATCC29213
Procedure: as §1

[3] = system: Streptococcus pneumonia ATTC49619; conditions: Streptococcus pneumoniae, ATTC49619; quinolone-sensitive strain; cation-adjusted Mueller-Hinton Broth; read-out: MIC for S. pneumonia ATTC49619
Procedure: as §1

[4] = system: Enterococcus faecium A949; conditions: Enterococcus faecium, A949; multiply-resistant strain (quinolone-resistant and vancomycin-resistant); cation-adjusted Mueller-Hinton Broth; read-out: MIC for E. faecium A949
Procedure: as §1

[5] = system: Staphylococcus aureus A798; conditions: Staphylococcus aureus, A798; multiply-resistant strain (quinolone-resistant and methicillin-resistant); cation-adjusted Mueller-Hinton Broth; read-out: MIC for S. aureus A798
Procedure: as §1

| MIC [1] [µg/mL] | MIC [2] [µg/mL] | MIC [3] [µg/mL] | MIC [4] [µg/mL] | MIC [5] [µg/mL] | Compound |
| --- | --- | --- | --- | --- | --- |
| > 8 | 0.5 (≈ 1.02 µM) | 4 (≈ 8.12 µM) | 2 (≈ 4.06 µM) | > 8 | O=C(CC1OC(=O)c2cc(-c3ccc(F)c(F)c3)ccc21)NCCn1c(=O)ccc2ccc(F)cc21 (racemic) [Example 10, rac-2-[5-(3,4-Difluoro-phenyl)-3-oxo-1,3-dihydro-isobenzofuran-1-yl]-N-[2-(7-fluoro-2-oxo-2H-quinolin-1-yl)-ethyl]-acetamide] |
| 0.5 (≈ 1.1 µM) | 0.031 (≈ 0.0679 µM) | 0.5 (≈ 1.1 µM) | 0.25 (≈ 0.548 µM) | 0.125 (≈ 0.274 µM) | COc1ccc2ncc(=O)n(CCNCCC3OC(=O)c4cc(-c5ccccc5)ccc43)c2n1 (racemic) [Example 2, rac-6-Methoxy-4-{2-[2-(3-oxo-5-phenyl-1,3-dihydro-isobenzofuran-1-yl)-ethylamino]-ethyl}-4H-pyrido[2,3-b]pyrazin-3-one] |
| 0.5 (≈ 1.02 µM) | 0.125 (≈ 0.254 µM) | 2 (≈ 4.06 µM) | 0.5 (≈ 1.02 µM) | 0.5 (≈ 1.02 µM) | O=C(Cn1c(=O)ccc2ccc(F)cc21)NCCC1OC(=O)c2cc(-c3cc(F)cc(F)c3)ccc21 (racemic) [Example 24, rac-N-{2-[5-(3,5-Difluoro-phenyl)-3-oxo-1,3-dihydro-isobenzofuran-1-yl]-ethyl}-2-(7-fluoro-2-oxo-2H-quinolin-1-yl)-acetamide] |
| 0.5 (≈ 1.02 µM) | 0.031 (≈ 0.063 µM) | 0.5 (≈ 1.02 µM) | 0.25 (≈ 0.508 µM) | 0.25 (≈ 0.508 µM) | O=C(CC1OC(=O)c2cc(-c3cccc(F)c3F)ccc21)NCCn1c(=O)ccc2ccc(F)cc21 (racemic) [Example 8, rac-2-[5-(2,3-Difluoro-phenyl)-3-oxo-1,3-dihydro-isobenzofuran-1-yl]-N-[2-(7-fluoro-2-oxo-2H-quinolin-1-yl)-ethyl]-acetamide] |
| > 8 | 0.25 (≈ 0.56 µM) | 4 (≈ 8.96 µM) | 0.5 (≈ 1.12 µM) | 1 (≈ 2.24 µM) | O=C(Cn1c(=O)ccc2ccc(F)cc21)NCCC1OC(=O)c2cc(C3=CCCC3)ccc21 (racemic) [Example 23, rac-N-[2-(5-Cyclopent-1-enyl-3-oxo-1,3-dihydro-isobenzofuran-1-yl)-ethyl]-2-(7-fluoro-2-oxo-2H-quinolin-1-yl)-acetamide] |

Reference: US20160090383A1, “ANTIBACTERIAL PHTHALIDE DERIVATIVES” (priority 2013, published 2016)
